Measured values as given in patent US20210198277A1, “AMINE-SUBSTITUTED ARYL OR HETEROARYL COMPOUNDS” (Epizyme, Inc., priority 2016, published 2021).

target: T1, human EHMT2 913-1193 (Homo sapiens, UniProt Q96KQ7); assay: EHMT2 enzyme assay on histone peptide substrate (EHMT2 PEP); assay type: biochemical; conditions: Table VII; read-out: EHMT2 PEP IC50
T1 construct: recombinant purified human EHMT2 913-1193, Viva; purchased Viva
T1 sequence (Q96KQ7 913-1193): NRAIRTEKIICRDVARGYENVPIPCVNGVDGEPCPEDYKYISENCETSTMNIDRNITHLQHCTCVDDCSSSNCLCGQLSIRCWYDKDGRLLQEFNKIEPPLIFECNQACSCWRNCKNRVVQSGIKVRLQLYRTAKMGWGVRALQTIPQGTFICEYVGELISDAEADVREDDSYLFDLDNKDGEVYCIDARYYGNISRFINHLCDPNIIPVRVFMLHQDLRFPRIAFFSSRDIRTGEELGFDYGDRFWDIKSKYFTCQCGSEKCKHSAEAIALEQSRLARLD
How it was run: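 Inhibition is measured as reduced tritium incorporation into a biotinylated histone peptide from ^3H-SAM. The enzyme (0.031 nM) sees compound for 30 minutes before a 60-minute room-temperature reaction, which unlabeled SAM quenches prior to streptavidin Flashplate capture.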

IC50 | SMILES
< 0.1 µM | CNc1cc(C2CCOCC2)c2cc(OC)c(CNCCN3CCCC3)cc2n1 [Compound 1111]
< 0.1 µM | CNc1cc(C2CCOCC2)c2cc(OC)c(OC[C@H](O)CN3CCC3)cc2n1 [Compound 1108]
1 to 10 µM | CNc1ccnc(Nc2ccc(OC)c(OC[C@@H](O)CN3CCC3)c2)n1 [Compound 1046]
0.1 to 1 µM | CCN(C)C[C@@H](O)COc1cc(Nc2nc(C)cc(NC)n2)ccc1OC [Compound 1113]

same assay, conditions: recombinant human EHMT2 913-1193, histone H3 1-15 peptide, balanced conditions; read-out: EHMT2 PEP (IC50 μM)

SMILES | IC50
COc1ccc(Nc2nc(C)cc(NCC3CCOCC3)n2)cc1OCC1CCN(C2CC2)C1 (stereo not drawn) [Compound 462, N^2-(3-((1-cyclopropylpyrrolidin-3-yl)methoxy)-4-methoxyphenyl)-6-methyl-N^4-((tetrahydro-2H-pyran-4-yl)methyl)pyrimidine-2,4-diamine] | < 0.1 µM
CNc1cc(C)nc(Nc2ccc(OC)c(OC3CCN(C)CC3)c2)n1 [Compound 455] | > 10 µM
COc1cc2c(C3CCN(C)CC3)nc(N3CCC(F)(F)CC3)nc2cc1OCCCN1CCCC1 [Compound 528] | 0.1 to 1 µM
CNc1cc(C)nc(Nc2ccc(OC)c(OCCCCN(C)C)c2)n1 [Compound 502] | 1 to 10 µM
CNc1nc(C2CCN(C(C)C)CC2)c2cc(OC)c(OC[C@@H]3CCN(C4CC4)C3)cc2n1 [Compound 526] | < 0.1 µM
CNc1nc(C2CCN(C(C)=O)CC2)c2cc(OC)c(OCCCN3CCCC3)cc2n1 [Compound 519] | 0.1 to 1 µM
CNc1cc(C)nc(Nc2ccc(OC)c(OC(C#N)CCN3CCCC3)c2)n1 (stereo not drawn) [Compound 489] | 1 to 10 µM
CNc1cc(C)nc(Nc2ccc(OC)c(OCC3CN(C4CC4)C3)c2)n1 [Compound 510] | 0.1 to 1 µM

The remaining lines, values ahead:

IC50 | SMILES
< 0.1 µM | COc1cnc(Nc2nc(C)cc3[nH]ccc23)cc1OCC1CCN(C2CC2)C1 (stereo not drawn) [Compound 494]
< 0.1 µM | CNc1nc(C2CCNCC2)c2cc(OC)c(OCCCN3CCCC3)cc2n1 [Compound 520]
< 0.1 µM | CNc1cc(C2CCN(C)CC2)c2cc(OC)c(OCCCN3CCCC3)cc2n1 [Compound 535]
1 to 10 µM | CNc1cc(C)nc(Nc2ccc(OC)c(OCCCN3CCC4(CC4)C3)c2)n1 [Compound 498, N^2-(3-(3-(5-azaspiro[2.4]heptan-5-yl)propoxy)-4-methoxyphenyl)-N^4,6-dimethylpyrimidine-2,4-diamine]
0.1 to 1 µM | CNc1cc(C2CCCC2)nc(Nc2ccc(OC)c(OCCCN3CCCC3)c2)n1 [Compound 458, 6-cyclopentyl-N^2-(4-methoxy-3-(3-(pyrrolidin-1-yl)propoxy)phenyl)-N^4-methylpyrimidine-2,4-diamine]
< 0.1 µM | COc1cnc(Nc2nc(C)cc3[nH]c(C)cc23)cc1OCCCN1CCCC1 [Compound 485]
